Reference: the NIST ThermoML archive (doi:10.1021/je4006739)
Numbers after ± are expanded uncertainties.

Conditions: Liquid; for mass density: 293.15 K, 101.33 kPa, Vibrating tube method; for Normal boiling temperature: Ebulliometric method (Recirculating still)

Structure (SMILES)	mass density	Normal boiling temperature
CCc1ccccc1 [ethylbenzene]	863.64 ± 0.23 kg/m3	136.10 ± 1 °C
C[S+](C)[O-] [dimethyl sulfoxide]	1092.48 ± 0.27 kg/m3	189.10 ± 1 °C
CCOCCO [2-ethoxyethan-1-ol]	928.92 ± 0.23 kg/m3	135.20 ± 1 °C
